Key:
Assay in all cases: radiometric filter-binding kinase assay
DYRK3 (human) = DYRK3 (human) (UniProt O43781)
MAP3K9 (human) = MAP3K9 (human) (UniProt P80192)
MAP2K6 (human) = MAP2K6 (human) (UniProt P52564)
SYK (human) = SYK (human) (UniProt P43405)
FGFR1 (human) = FGFR1 (human) (UniProt P11362)
GSK3B (human) = GSK3B (human) (UniProt P49841)
NEK6 (human) = NEK6 (human) (UniProt Q9HC98)
MARK1 (human) = MARK1 (human) (UniProt Q9P0L2)
PKN2 (human) = PKN2 (human) (UniProt Q16513)
INSRR (human) = INSRR (human) (UniProt P14616)
SRPK1 (human) = SRPK1 (human) (UniProt Q96SB4)
[1] = system: AKT1 (human), P31749 [S473D]
EPHA2 (human) = EPHA2 (human) (UniProt P29317)
MAPK13 (human) = MAPK13 (human) (UniProt O15264)
MAPK10 (human) = MAPK10 (human) (UniProt P53779)
[2] = system: PAK2 (human), Q13177 [T402E]
PIM2 (human) = PIM2 (human) (UniProt Q9P1W9)
LCK (mouse) = details: accession and sequence are those of the human protein
NEK2 (human) = NEK2 (human) (UniProt P51955)
TTK (human) = TTK (human) (UniProt P33981)
IRAK4 (human) = IRAK4 (human) (UniProt Q9NWZ3)
ROCK2 (rat) = details: accession and sequence are those of the human protein
MARK2 (human) = MARK2 (human) (UniProt Q7KZI7)
TBK1 (human) = TBK1 (human) (UniProt Q9UHD2)
MAP2K1 (human) = MAP2K1 (human) (UniProt Q02750)
[3] = system: AKT2 (human), P31751 [S474D]
[4] = system: RPS6KB1 (human), P23443 [T412E]
PIM3 (human) = PIM3 (human) (UniProt Q86V86)
[5] = target: STK11 CAB39 STRADA (human) (UniProt Q9Y376+Q7RTN6+Q15831)
MYLK (human) = MYLK (human) (UniProt Q15746)
PHKG1 (human) = PHKG1 (human) (UniProt Q16816)
INSR (human) = INSR (human) (UniProt P06213)
CSNK2A1 (human) = CSNK2A1 (human) (UniProt P68400)
MKNK1 (human) = MKNK1 (human) (UniProt Q9BUB5)
EPHB1 (human) = EPHB1 (human) (UniProt P54762)
MAPK11 (human) = MAPK11 (human) (UniProt Q15759)

Chain of PAK2 (human), Q13177 [T402E] (Q13177 whole entry T402E, looked up): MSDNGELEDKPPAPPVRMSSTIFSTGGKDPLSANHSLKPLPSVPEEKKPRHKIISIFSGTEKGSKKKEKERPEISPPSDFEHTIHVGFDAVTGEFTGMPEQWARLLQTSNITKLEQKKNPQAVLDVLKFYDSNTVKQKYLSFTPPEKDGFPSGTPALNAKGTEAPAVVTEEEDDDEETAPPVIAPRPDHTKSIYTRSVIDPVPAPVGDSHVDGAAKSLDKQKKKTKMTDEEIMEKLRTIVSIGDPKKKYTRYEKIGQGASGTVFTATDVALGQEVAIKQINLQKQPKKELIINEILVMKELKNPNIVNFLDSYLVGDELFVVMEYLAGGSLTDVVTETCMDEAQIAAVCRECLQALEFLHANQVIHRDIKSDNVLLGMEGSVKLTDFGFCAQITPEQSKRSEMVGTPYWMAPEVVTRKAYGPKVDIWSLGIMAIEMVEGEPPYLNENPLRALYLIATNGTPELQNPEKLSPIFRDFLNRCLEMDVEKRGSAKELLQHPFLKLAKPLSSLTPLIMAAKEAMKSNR
Chain of NEK6 (human) (Q9HC98 whole entry, looked up): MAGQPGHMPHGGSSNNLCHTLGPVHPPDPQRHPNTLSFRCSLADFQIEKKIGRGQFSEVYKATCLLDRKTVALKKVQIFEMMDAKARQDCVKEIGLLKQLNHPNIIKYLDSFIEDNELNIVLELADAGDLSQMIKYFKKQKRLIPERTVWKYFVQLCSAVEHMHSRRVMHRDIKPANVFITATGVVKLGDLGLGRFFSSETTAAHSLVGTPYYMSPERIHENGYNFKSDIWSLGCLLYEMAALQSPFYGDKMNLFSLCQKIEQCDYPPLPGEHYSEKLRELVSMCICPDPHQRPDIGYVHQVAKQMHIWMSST
Chain of AKT1 (human), P31749 [S473D] (P31749 whole entry S473D, looked up): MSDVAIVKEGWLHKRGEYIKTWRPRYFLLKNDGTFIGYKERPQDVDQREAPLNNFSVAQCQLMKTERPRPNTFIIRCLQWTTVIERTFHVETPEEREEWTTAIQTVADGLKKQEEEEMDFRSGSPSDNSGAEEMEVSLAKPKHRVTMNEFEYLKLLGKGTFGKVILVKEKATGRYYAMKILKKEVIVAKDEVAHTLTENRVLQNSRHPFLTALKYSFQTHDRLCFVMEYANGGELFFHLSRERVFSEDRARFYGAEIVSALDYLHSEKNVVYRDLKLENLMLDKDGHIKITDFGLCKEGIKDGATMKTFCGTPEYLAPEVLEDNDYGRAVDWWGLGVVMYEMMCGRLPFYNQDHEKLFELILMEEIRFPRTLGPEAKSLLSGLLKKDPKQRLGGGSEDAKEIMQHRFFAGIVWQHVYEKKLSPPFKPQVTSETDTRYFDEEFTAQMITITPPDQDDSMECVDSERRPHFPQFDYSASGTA
Chain of MARK2 (human) (Q7KZI7 whole entry, looked up): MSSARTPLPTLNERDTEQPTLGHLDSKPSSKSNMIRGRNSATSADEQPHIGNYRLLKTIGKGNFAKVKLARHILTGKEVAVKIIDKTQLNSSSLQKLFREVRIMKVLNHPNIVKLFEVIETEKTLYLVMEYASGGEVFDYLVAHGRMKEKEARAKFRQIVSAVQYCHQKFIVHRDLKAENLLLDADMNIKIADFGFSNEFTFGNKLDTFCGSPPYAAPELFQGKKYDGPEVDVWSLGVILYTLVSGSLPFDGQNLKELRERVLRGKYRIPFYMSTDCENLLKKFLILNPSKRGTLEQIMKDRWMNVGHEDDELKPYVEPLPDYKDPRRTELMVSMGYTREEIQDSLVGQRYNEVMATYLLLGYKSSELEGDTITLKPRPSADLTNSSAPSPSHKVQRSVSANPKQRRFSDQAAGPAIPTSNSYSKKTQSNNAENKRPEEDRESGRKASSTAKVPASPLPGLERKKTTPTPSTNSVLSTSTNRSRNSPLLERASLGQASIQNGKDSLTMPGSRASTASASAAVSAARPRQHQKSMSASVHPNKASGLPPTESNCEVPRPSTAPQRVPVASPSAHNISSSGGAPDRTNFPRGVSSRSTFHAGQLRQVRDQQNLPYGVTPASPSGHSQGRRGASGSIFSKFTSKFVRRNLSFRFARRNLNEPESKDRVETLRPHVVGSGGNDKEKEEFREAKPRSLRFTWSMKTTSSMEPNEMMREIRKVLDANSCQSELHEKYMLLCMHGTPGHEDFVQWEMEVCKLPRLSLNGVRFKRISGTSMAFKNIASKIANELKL
Chain of MKNK1 (human) (Q9BUB5 whole entry, looked up): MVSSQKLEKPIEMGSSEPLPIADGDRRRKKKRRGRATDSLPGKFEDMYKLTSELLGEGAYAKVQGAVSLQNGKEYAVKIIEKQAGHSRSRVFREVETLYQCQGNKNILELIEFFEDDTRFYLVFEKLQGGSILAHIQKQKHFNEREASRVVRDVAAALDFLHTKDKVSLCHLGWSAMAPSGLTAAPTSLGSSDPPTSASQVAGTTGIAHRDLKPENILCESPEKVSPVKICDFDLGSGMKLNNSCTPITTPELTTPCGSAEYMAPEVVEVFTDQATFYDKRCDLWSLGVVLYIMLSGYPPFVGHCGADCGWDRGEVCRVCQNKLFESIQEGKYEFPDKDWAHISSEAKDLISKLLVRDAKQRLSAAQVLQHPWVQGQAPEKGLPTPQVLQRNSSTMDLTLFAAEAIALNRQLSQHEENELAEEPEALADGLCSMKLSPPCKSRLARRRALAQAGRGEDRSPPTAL
Chain of NEK2 (human) (P51955 whole entry, looked up): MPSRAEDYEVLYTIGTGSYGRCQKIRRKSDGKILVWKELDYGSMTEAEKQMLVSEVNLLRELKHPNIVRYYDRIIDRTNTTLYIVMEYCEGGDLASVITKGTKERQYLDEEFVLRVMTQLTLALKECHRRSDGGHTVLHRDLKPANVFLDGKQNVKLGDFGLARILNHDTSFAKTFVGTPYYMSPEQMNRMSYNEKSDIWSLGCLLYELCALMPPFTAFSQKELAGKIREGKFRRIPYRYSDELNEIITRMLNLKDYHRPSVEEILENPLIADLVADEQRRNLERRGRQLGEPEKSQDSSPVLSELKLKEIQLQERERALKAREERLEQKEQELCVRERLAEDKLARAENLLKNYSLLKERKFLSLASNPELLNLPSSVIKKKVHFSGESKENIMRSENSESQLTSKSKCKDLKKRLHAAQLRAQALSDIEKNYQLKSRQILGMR
Chain of AKT2 (human), P31751 [S474D] (P31751 whole entry S474D, looked up): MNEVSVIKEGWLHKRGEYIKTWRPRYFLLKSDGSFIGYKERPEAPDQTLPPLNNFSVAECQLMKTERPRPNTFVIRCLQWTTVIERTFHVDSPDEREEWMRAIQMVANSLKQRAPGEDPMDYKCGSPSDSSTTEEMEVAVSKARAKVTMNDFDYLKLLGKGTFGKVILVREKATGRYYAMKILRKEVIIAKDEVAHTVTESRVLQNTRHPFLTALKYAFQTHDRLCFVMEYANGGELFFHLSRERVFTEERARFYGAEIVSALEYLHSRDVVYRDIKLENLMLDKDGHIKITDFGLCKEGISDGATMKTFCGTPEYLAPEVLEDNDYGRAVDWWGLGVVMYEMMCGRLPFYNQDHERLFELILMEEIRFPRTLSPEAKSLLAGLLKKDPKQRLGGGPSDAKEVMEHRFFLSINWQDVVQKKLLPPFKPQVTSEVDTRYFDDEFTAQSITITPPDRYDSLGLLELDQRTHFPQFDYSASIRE
Chain of GSK3B (human) (P49841 whole entry, looked up): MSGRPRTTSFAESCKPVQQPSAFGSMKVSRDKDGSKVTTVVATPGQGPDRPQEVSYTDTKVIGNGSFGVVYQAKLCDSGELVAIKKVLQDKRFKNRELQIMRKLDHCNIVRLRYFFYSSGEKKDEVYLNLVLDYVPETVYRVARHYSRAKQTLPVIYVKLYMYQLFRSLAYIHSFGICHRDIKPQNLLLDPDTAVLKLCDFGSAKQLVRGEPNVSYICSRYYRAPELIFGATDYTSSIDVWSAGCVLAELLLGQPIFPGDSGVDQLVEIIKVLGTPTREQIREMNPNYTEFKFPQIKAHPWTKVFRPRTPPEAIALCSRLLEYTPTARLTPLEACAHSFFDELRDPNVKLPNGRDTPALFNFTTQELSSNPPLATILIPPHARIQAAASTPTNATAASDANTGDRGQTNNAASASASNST
Chain of MARK1 (human) (Q9P0L2 whole entry, looked up): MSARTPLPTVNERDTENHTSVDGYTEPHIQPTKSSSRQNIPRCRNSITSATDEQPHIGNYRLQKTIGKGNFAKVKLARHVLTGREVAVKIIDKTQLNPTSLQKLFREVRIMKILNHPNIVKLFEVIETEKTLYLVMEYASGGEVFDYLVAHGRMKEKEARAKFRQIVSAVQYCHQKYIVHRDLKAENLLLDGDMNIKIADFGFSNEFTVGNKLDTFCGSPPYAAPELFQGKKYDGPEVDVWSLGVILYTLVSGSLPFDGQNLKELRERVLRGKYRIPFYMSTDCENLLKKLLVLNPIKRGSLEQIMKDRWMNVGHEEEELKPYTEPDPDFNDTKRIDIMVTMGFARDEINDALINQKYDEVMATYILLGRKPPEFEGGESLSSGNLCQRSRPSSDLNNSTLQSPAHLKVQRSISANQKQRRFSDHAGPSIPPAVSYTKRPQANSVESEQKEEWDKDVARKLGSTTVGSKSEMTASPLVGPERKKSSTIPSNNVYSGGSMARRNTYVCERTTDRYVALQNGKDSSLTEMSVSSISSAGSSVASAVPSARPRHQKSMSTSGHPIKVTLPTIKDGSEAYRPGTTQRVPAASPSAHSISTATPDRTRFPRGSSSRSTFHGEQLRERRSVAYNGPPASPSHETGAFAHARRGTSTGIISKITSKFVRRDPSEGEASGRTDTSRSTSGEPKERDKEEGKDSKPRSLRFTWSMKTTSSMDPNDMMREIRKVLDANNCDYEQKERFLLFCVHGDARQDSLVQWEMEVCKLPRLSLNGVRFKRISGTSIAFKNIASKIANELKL

Compound: Cc1cc(NC(=O)c2cccc(NC(=O)/C=C/CN(C)C)c2)ccc1Nc1nccc(-c2cccnc2)n1
- residual activity (DYRK3 (human); compound 0.1 µM): 94%
- residual activity (DYRK3 (human); compound 1.0 µM): 80%
- residual activity (MAP3K9 (human); compound 0.1 µM): 98%
- residual activity (MAP3K9 (human); compound 1.0 µM): 88%
- residual activity (MAP2K6 (human); compound 0.1 µM): 100%
- residual activity (MAP2K6 (human); compound 1.0 µM): 95%
- residual activity (SYK (human); compound 0.1 µM): 103%
- residual activity (SYK (human); compound 1.0 µM): 88%
- residual activity (FGFR1 (human); compound 0.1 µM): 103%
- residual activity (FGFR1 (human); compound 1.0 µM): 82%
- residual activity (GSK3B (human); compound 0.1 µM): 114%
- residual activity (GSK3B (human); compound 1.0 µM): 90%
- residual activity (NEK6 (human); compound 0.1 µM): 95%
- residual activity (NEK6 (human); compound 1.0 µM): 87%
- residual activity (MARK1 (human); compound 0.1 µM): 114%
- residual activity (PKN2 (human); compound 0.1 µM): 112%
- residual activity (PKN2 (human); compound 1.0 µM): 95%
- residual activity (INSRR (human); compound 0.1 µM): 93%
- residual activity (SRPK1 (human); compound 0.1 µM): 97%
- residual activity (SRPK1 (human); compound 1.0 µM): 84%
- residual activity ([1]; compound 0.1 µM): 102%
- residual activity ([1]; compound 1.0 µM): 98%
- residual activity (EPHA2 (human); compound 0.1 µM): 118%
- residual activity (EPHA2 (human); compound 1.0 µM): 111%
- residual activity (MAPK13 (human); compound 0.1 µM): 96%
- residual activity (MAPK13 (human); compound 1.0 µM): 80%
- residual activity (MAPK10 (human); compound 0.1 µM): 14%
- residual activity (MAPK10 (human); compound 1.0 µM): 13%
- residual activity ([2]; compound 0.1 µM): 99%
- residual activity ([2]; compound 1.0 µM): 90%
- residual activity (PIM2 (human); compound 0.1 µM): 104%
- residual activity (PIM2 (human); compound 1.0 µM): 99%
- residual activity (LCK (mouse); compound 0.1 µM): 96%
- residual activity (LCK (mouse); compound 1.0 µM): 92%
- residual activity (NEK2 (human); compound 0.1 µM): 105%
- residual activity (NEK2 (human); compound 1.0 µM): 100%
- residual activity (TTK (human); compound 0.1 µM): 85%
- residual activity (TTK (human); compound 1.0 µM): 65%
- residual activity (IRAK4 (human); compound 1.0 µM): 86%
- residual activity (ROCK2 (rat); compound 0.1 µM): 86%
- residual activity (ROCK2 (rat); compound 1.0 µM): 80%
- residual activity (MARK2 (human); compound 0.1 µM): 99%
- residual activity (MARK2 (human); compound 1.0 µM): 85%
- residual activity (TBK1 (human); compound 1.0 µM): 106%
- residual activity (MAP2K1 (human); compound 0.1 µM): 107%
- residual activity (MAP2K1 (human); compound 1.0 µM): 96%
- residual activity ([3]; compound 0.1 µM): 99%
- residual activity ([3]; compound 1.0 µM): 91%
- residual activity ([4]; compound 0.1 µM): 98%
- residual activity ([4]; compound 1.0 µM): 93%
- residual activity (PIM3 (human); compound 1.0 µM): 83%
- residual activity ([5]; compound 0.1 µM): 106%
- residual activity ([5]; compound 1.0 µM): 95%
- residual activity (MYLK (human); compound 0.1 µM): 97%
- residual activity (MYLK (human); compound 1.0 µM): 96%
- residual activity (PHKG1 (human); compound 0.1 µM): 85%
- residual activity (PHKG1 (human); compound 1.0 µM): 86%
- residual activity (INSR (human); compound 0.1 µM): 102%
- residual activity (INSR (human); compound 1.0 µM): 80%
- residual activity (CSNK2A1 (human); compound 0.1 µM): 93%
- residual activity (CSNK2A1 (human); compound 1.0 µM): 77%
- residual activity (MKNK1 (human); compound 1.0 µM): 88%
- residual activity (EPHB1 (human); compound 0.1 µM): 97%
- residual activity (EPHB1 (human); compound 1.0 µM): 95%

Compound: NS(=O)(=O)OC[C@@H]1C[C@@H](n2ccc3c(N[C@H]4CCc5ccccc54)ncnc32)C[C@@H]1O
- residual activity (DYRK3 (human); compound 10.0 µM): 84%
- residual activity (MAP3K9 (human); compound 1.0 µM): 82%
- residual activity (MAP3K9 (human); compound 10.0 µM): 88%
- residual activity (MAP2K6 (human); compound 1.0 µM): 95%
- residual activity (MAP2K6 (human); compound 10.0 µM): 94%
- residual activity (SYK (human); compound 1.0 µM): 92%
- residual activity (SYK (human); compound 10.0 µM): 104%
- residual activity (FGFR1 (human); compound 10.0 µM): 126%
- residual activity (GSK3B (human); compound 1.0 µM): 93%
- residual activity (GSK3B (human); compound 10.0 µM): 98%
- residual activity (NEK6 (human); compound 10.0 µM): 102%
- residual activity (MARK1 (human); compound 1.0 µM): 100%
- residual activity (MARK1 (human); compound 10.0 µM): 107%
- residual activity (PKN2 (human); compound 1.0 µM): 90%
- residual activity (PKN2 (human); compound 10.0 µM): 92%
- residual activity (INSRR (human); compound 1.0 µM): 87%
- residual activity (INSRR (human); compound 10.0 µM): 83%
- residual activity (SRPK1 (human); compound 1.0 µM): 92%
- residual activity (SRPK1 (human); compound 10.0 µM): 102%
- residual activity ([1]; compound 1.0 µM): 118%
- residual activity ([1]; compound 10.0 µM): 119%
- residual activity (EPHA2 (human); compound 10.0 µM): 105%
- residual activity (MAPK13 (human); compound 1.0 µM): 92%
- residual activity (MAPK13 (human); compound 10.0 µM): 90%
- residual activity (MAPK10 (human); compound 1.0 µM): 81%
- residual activity (MAPK10 (human); compound 10.0 µM): 82%
- residual activity ([2]; compound 1.0 µM): 98%
- residual activity ([2]; compound 10.0 µM): 93%
- residual activity (MAPK11 (human); compound 1.0 µM): 95%
- residual activity (MAPK11 (human); compound 10.0 µM): 98%
- residual activity (PIM2 (human); compound 10.0 µM): 101%
- residual activity (LCK (mouse); compound 1.0 µM): 98%
- residual activity (LCK (mouse); compound 10.0 µM): 110%
- residual activity (NEK2 (human); compound 1.0 µM): 109%
- residual activity (NEK2 (human); compound 10.0 µM): 100%
- residual activity (TTK (human); compound 1.0 µM): 86%
- residual activity (TTK (human); compound 10.0 µM): 98%
- residual activity (IRAK4 (human); compound 10.0 µM): 99%
- residual activity (ROCK2 (rat); compound 10.0 µM): 81%
- residual activity (MARK2 (human); compound 1.0 µM): 90%
- residual activity (MARK2 (human); compound 10.0 µM): 88%
- residual activity (TBK1 (human); compound 10.0 µM): 88%
- residual activity (MAP2K1 (human); compound 1.0 µM): 95%
- residual activity (MAP2K1 (human); compound 10.0 µM): 99%
- residual activity ([3]; compound 10.0 µM): 88%
- residual activity ([4]; compound 1.0 µM): 94%
- residual activity ([4]; compound 10.0 µM): 85%
- residual activity (PIM3 (human); compound 10.0 µM): 78%
- residual activity ([5]; compound 1.0 µM): 127%
- residual activity ([5]; compound 10.0 µM): 104%
- residual activity (PHKG1 (human); compound 1.0 µM): 109%
- residual activity (PHKG1 (human); compound 10.0 µM): 106%
- residual activity (INSR (human); compound 1.0 µM): 89%
- residual activity (INSR (human); compound 10.0 µM): 93%
- residual activity (CSNK2A1 (human); compound 1.0 µM): 80%
- residual activity (CSNK2A1 (human); compound 10.0 µM): 88%
- residual activity (MKNK1 (human); compound 1.0 µM): 104%
- residual activity (MKNK1 (human); compound 10.0 µM): 92%
- residual activity (EPHB1 (human); compound 10.0 µM): 100%

Reference: the kinase profiling compilation of Christmann-Franck et al. (2016)
